From ChEMBL document CHEMBL1201862, “PubChem BioAssay data set” (2004) come the findings set out here.

Activity calls are given as the source filed them.

For test [1], the target named is T1, Polyadenylate-binding protein 1 (Homo sapiens, UniProt P11940). The test is described as follows: PABP1 MLLE–PAM2 interaction inhibitors, dose response, miRNA deadenylation inhibitor project, biochemical, fluorescence polarization, Cy5-PAM2 peptide, secondary (AID 602260). In kind it is functional. The conditions noted are these: read-out: IC50_Mean.
The target in test [2] is T1, Polyadenylate-binding protein 1. The test is described as follows: PABP1 MLLE–PAM2 binding inhibitor potency, dose response, biochemical, fluorescence polarization, FITC-PAM2 peptide (AID 602259). In kind it is functional. The conditions noted are these: read-out: IC50_Mean. (In general: In fluorescence polarisation assays a small probe gives low polarisation when free and higher when bound to something large.)

In test [3] the target is Induced myeloid leukemia cell differentiation protein Mcl-1 (Homo sapiens, UniProt Q07820). In kind it is functional.
Test [4] deals with Genome polyprotein (dengue virus type 2, UniProt P29990). The test is described as follows: Dengue-2 NS5 methyltransferase inhibitors, primary screen, biochemical, confirmation dose response (AID 588689). The class given is functional.
The target of test [5] is T2, Tyrosine-protein phosphatase non-receptor type 7 (Homo sapiens, UniProt P35236).
T2 sequence (P35236 whole entry): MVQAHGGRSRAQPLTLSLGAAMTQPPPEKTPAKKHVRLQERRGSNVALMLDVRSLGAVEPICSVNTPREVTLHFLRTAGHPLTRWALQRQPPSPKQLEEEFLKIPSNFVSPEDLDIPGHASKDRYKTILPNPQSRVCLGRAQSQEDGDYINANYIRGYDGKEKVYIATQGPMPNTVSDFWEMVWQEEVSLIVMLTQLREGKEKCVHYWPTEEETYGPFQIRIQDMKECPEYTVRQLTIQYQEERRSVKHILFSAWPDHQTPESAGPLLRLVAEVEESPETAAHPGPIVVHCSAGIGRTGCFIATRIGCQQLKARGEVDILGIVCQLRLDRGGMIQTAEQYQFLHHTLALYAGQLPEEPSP
Briefly: redox-dependent HePTP inhibition, mechanism study, biochemical, fluorescence (AID 2068). The class given is functional.

Test [6] has as its system J774.A1. The test is described as follows: Confirmation of image-based Screening Assay for Inhibitors of Phagocytosis. [Related pubchem assays (depositor defined):AID1029, AID1643]. The conditions noted are these: Mus musculus. In kind it is functional, cell-based.
Test [7] deals with NACHT, LRR and PYD domains-containing protein 3 (Homo sapiens, UniProt Q96P20). The test is described as follows: NALP3 inhibitors in yeast, dose response, luminescent (AID 488799). In kind it is functional.
Test [8] is described as follows: NIH-3T3 fibroblast cytotoxicity, dose response, cytotoxicity control, cell-based, fluorescence, Alamar Blue, secondary assay (AID 2327).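 Note: NIH-3T3 mouse fibroblasts cultured with fluconazole at 8 µg/mL.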 In kind it is functional.
Test [9] is described as follows: C. albicans growth with fluconazole, confirmation, fluorescence, retest (AID 2467). In kind it is functional, cell-based.
Test [10] has as its target CAAX prenyl protease 2 (Saccharomyces cerevisiae S288c, UniProt Q03530). In kind it is biochemical.
For test [11], the target named is Keap1/Nrf2 (Homo sapiens, UniProt Q14145). Briefly: Keap1-Nrf2 protein-protein interaction inhibitors, dose response, biochemical, fluorescence polarization, cherry-picked samples (AID 588683).
Test [12] deals with G-protein coupled receptor 35 (Homo sapiens, UniProt Q9HC97). Briefly: GPR35 antagonists blocking zaprinast-driven arrestin recruitment, primary screen, imaging, U2OS, beta-arrestin-GFP, zaprinast agonist (AID 2058).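 Note: antagonist potency meaning inhibition of agonist-induced arrestin redistribution.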 In kind it is functional.
The target in test [13] is Beta-lactamase (Salmonella choleraesuis (strain SC-B67), UniProt Q5J463).
Test [14] addresses Beta-lactamase (Pseudomonas aeruginosa, UniProt Q79MP6).
Test [15] has as its target T3, Small ubiquitin-related modifier 2 (Homo sapiens, UniProt P61956). The test is described as follows: SUMO2–SIM peptide binding inhibitors, dose response, selectivity assay for SUMO1 interaction inhibitor project, biochemical, fluorescence polarization, uHTS hits (AID 624385). In kind it is functional. The conditions noted are these: read-out: IC50_Mean.
For test [16], the target named is T4, Small ubiquitin-related modifier 1 (Homo sapiens, UniProt P63165). The test is described as follows: inhibitors of SUMO1 partner interactions, dose response, biochemical, FRET (AID 624383). In kind it is functional. The conditions noted are these: read-out: IC50_Mean.
For test [17], the target named is T3, Small ubiquitin-related modifier 2. The test is described as follows: inhibitors of SUMO2 protein-protein interaction, dose response, selectivity assay for SUMO1 interaction inhibitor project, biochemical, FRET, human SUMO2, uHTS hits (AID 624384). The class given is functional. The conditions noted are these: read-out: IC50_Mean.
The target in test [18] is T4, Small ubiquitin-related modifier 1. The test is described as follows: inhibitors of SUMO1 peptide binding, dose response, biochemical, fluorescence polarization, uHTS hits (AID 624382). The conditions noted are these: read-out: IC50_Mean. In kind it is functional.
Test [19] deals with Envelope glycoprotein gp160 (Human immunodeficiency virus 1, UniProt Q6QLK5). Briefly: inhibitors of HIV fusion peptide binding, primary screen, biochemical, uHTS, fluorescence dequenching (AID 1986).
Test [20] deals with T5, SUMO-activating enzyme (Homo sapiens, UniProt Q9UBT2). Briefly: SUMOylation inhibitor hit validation, confirmation, SUMOylation inhibitor project, biochemical, AlphaScreen (AID 2018). The class given is functional. For orientation: In Alpha technology, singlet oxygen from a donor bead excites a nearby acceptor bead.
Test [21] has as its target Eukaryotic translation initiation factor 4E (Mus musculus, UniProt P63073). The test is described as follows: eIF4E–eIF4G protein interaction inhibitors, dose response, biochemical, TR-FRET (AID 855).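 Note: potency for disrupting eIF4E binding to eIF4GI seen as loss of FRET.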 The class given is functional. A general note: Time-resolved FRET reads energy transfer from a long-lived donor to a nearby acceptor.
Test [22] deals with T5, SUMO-activating enzyme. Briefly: inhibitors of in vitro SUMOylation cascade, primary screen, biochemical, HTRF, uHTS (AID 2006). The class given is protein-complex assay.

Sequence of Induced myeloid leukemia cell differentiation protein Mcl-1 (Q07820 whole entry): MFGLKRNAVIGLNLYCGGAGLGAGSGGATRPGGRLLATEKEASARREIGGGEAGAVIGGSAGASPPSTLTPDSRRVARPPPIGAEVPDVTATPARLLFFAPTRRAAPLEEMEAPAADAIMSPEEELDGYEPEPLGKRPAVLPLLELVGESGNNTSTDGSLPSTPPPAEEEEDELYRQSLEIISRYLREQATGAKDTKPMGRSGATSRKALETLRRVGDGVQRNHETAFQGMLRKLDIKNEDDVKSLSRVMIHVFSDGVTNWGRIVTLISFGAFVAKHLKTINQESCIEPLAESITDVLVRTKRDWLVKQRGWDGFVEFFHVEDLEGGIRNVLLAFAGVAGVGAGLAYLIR
T4 sequence (P63165 whole entry): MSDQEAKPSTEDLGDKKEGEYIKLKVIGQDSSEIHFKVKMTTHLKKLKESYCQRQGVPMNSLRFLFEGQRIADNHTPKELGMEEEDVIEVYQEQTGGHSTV
T3 sequence (P61956 whole entry): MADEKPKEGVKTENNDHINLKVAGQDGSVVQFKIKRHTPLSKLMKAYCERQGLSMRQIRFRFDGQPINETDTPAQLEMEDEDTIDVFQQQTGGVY
T1 sequence (P11940 whole entry): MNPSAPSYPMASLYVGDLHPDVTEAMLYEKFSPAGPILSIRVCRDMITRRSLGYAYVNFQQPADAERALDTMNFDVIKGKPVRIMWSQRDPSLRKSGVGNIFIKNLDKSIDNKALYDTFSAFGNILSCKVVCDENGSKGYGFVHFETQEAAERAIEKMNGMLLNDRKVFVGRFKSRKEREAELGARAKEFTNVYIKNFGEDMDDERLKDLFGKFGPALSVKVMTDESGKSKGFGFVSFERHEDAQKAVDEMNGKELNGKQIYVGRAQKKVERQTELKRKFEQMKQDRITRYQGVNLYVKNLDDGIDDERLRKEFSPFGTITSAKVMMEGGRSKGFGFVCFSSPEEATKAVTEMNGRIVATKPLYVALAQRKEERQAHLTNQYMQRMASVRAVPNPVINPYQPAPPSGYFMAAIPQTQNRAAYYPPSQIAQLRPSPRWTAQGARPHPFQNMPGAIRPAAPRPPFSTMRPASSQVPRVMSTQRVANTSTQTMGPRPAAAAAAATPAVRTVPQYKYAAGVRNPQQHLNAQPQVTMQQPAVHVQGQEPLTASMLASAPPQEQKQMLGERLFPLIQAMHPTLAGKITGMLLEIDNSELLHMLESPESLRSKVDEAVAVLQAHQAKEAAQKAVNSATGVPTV
T5 sequence (Q9UBE0 whole entry): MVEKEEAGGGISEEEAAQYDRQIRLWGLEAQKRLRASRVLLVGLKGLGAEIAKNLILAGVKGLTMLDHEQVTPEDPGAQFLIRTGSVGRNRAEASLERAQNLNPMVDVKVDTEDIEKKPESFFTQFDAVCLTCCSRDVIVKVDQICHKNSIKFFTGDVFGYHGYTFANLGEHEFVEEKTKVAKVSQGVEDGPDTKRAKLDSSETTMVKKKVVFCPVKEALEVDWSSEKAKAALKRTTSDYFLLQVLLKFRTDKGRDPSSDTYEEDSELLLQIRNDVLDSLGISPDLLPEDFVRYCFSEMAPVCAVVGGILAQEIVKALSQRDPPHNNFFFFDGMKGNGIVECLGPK
T5 sequence (Q9UBT2 whole entry): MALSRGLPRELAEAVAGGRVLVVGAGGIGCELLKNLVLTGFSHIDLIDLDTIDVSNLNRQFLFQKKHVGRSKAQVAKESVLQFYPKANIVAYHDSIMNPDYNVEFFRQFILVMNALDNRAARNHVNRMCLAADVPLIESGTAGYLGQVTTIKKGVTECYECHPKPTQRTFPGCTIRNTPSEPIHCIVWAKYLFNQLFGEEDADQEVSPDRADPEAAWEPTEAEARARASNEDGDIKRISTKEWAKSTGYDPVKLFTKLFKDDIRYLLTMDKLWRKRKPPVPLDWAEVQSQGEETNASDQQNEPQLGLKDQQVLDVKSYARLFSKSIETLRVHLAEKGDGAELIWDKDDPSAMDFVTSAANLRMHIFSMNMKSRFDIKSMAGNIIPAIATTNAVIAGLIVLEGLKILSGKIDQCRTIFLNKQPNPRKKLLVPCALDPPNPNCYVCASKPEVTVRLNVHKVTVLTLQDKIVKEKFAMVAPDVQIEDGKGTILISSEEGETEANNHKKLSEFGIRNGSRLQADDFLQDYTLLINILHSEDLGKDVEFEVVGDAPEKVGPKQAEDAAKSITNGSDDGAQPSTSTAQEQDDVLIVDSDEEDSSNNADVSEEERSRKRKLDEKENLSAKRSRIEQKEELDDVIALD
Sequence of Envelope glycoprotein gp160 (Q6QLK5 whole entry, the tested form may be a part): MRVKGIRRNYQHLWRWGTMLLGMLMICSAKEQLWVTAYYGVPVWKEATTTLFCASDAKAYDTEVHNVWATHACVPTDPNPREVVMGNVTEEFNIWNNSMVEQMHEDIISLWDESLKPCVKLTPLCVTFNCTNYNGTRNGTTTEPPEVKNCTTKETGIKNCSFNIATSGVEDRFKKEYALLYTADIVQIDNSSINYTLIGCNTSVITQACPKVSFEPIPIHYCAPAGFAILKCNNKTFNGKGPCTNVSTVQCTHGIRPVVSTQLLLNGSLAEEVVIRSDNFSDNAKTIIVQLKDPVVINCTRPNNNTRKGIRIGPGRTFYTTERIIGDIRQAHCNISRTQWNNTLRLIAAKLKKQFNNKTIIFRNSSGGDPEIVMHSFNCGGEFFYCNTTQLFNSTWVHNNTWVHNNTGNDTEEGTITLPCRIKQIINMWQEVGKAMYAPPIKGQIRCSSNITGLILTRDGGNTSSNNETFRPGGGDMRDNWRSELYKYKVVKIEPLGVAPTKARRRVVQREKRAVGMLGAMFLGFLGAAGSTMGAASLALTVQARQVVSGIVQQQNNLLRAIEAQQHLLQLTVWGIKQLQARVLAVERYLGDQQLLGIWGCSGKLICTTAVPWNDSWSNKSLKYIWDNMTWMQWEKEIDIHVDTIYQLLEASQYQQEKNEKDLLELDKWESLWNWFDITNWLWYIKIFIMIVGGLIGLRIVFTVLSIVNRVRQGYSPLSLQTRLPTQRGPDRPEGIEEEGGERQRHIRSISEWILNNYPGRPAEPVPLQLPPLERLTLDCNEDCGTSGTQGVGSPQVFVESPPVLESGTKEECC
Sequence of Beta-lactamase (Pseudomonas aeruginosa, UniProt Q79MP6) (Q79MP6 whole entry): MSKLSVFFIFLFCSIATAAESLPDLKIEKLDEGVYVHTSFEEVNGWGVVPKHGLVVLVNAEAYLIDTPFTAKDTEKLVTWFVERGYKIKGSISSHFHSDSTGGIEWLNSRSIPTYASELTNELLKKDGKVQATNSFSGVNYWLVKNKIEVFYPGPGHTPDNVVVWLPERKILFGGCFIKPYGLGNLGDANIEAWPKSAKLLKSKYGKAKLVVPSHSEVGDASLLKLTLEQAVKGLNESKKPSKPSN
Sequence of Eukaryotic translation initiation factor 4E (P63073 whole entry): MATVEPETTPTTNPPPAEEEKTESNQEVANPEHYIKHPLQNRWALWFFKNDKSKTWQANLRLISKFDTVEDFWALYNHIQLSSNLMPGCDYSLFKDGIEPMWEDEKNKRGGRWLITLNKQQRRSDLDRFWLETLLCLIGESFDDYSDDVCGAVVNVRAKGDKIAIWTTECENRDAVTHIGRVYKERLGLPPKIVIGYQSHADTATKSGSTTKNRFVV
Sequence of G-protein coupled receptor 35 (Q9HC97 whole entry): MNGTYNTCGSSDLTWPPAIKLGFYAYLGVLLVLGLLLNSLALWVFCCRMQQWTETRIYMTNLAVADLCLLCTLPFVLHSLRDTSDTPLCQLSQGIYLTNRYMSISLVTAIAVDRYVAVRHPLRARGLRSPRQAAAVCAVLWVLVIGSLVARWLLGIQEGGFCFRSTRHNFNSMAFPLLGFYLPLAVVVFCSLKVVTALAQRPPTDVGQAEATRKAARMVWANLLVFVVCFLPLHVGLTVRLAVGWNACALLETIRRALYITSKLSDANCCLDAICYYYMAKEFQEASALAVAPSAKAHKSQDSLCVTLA
Sequence of NACHT, LRR and PYD domains-containing protein 3 (Q96P20 whole entry, the tested form may be a part): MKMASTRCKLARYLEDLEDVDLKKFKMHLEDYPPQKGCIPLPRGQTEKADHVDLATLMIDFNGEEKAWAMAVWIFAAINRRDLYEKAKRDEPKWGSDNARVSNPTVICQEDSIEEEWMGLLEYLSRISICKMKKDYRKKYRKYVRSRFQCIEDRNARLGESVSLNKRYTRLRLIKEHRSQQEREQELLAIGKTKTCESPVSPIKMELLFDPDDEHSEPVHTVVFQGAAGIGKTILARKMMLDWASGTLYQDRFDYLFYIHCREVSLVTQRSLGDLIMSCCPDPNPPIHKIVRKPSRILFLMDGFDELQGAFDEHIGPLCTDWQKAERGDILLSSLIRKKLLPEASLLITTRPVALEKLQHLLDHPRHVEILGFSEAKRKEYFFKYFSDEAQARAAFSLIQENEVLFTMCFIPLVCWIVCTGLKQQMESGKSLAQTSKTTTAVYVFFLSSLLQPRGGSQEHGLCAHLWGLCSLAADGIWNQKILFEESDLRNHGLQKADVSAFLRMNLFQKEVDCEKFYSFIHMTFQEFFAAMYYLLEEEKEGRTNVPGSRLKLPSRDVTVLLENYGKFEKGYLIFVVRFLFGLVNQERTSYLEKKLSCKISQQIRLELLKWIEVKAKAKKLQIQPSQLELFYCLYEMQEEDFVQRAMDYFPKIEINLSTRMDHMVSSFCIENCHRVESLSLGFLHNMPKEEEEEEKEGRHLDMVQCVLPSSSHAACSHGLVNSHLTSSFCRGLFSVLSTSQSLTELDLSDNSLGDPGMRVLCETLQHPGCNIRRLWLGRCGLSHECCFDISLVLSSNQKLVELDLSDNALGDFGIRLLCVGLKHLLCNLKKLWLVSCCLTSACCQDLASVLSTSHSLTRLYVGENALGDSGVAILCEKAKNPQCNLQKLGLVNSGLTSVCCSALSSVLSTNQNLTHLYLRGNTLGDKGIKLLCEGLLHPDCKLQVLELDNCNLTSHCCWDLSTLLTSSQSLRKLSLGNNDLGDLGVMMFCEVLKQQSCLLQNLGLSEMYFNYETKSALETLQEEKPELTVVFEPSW

On to `COc1ccc2nc(-c3ccco3)c(-c3ccco3)nc2c1`, for which the IC50 was > 66 µM (inactive) in test [1]; > 66 µM (inactive) in test [2]; 3.09 µM (active) in [3]; 73.9 µM (active) in [4]; 2.79 µM (active) in test [5].

Consider `COc1ccccc1/C=C/C(=O)OCC(=O)Nc1cc(C(F)(F)F)ccc1N1CCOCC1`, for which, in [6], the IC50 is > 25 µM (inactive).

For the compound `c1ccc(Sc2cccc3ccccc23)c(CNC2=NCCN2)c1`, in test [7], the IC50 is 11.7 µM (active). Also, the EC50 (in general, the concentration at which the effect is half-maximal) in [8] was > 150 µM (inactive); in test [9], 3.8 µM (active).

For the compound `CCN(CC)CCN(C(=O)c1cc2ccccc2cc1OC)c1nc2ccc(F)cc2s1`, the AC50 (in general, the concentration giving half of the maximal activity seen) in test [10] is 6.98 µM (active).

Consider `O=c1cc(C(F)(F)F)c2cc3c4c(c2o1)CCCN4CCC3`, for which, in [11], the AC50 was 2.8 µM (active). In addition, the IC50 in test [12] was 1.37 µM (active); in test [13], 5.57 µM (active); in test [14], 78.2 µM (inactive).

Consider `O=C(O)c1cccc2c1NC(c1cccc([N+](=O)[O-])c1)C1CC(Sc3ccccc3[N+](=O)[O-])C(Cl)C21` (stereo not drawn), for which the IC50 in test [15] is 6.5 µM (active); in [16], 36.6 µM (inactive); in test [17] it was 6.16 µM (active); in test [18], 6.45 µM (active); in test [19] it was 12.5 µM (active); in test [3], 3.05 µM (active). The IC50 in test [20] is 2.43 µM (active); in test [21], 50 µM (inactive); in test [22], 13.3 µM (active).
